{"source": "patent US8461142B2", "about": "“Water-soluble anionic bacteriochlorophyll derivatives and their uses” (Yeda Research and Development Co. Ltd., priority 2002, dated 2013)", "key": {"[1]": {"system": "M2R mouse melanoma cells", "assay": "Phototoxicity assay (Neutral Red viability after illumination), M2R cells", "assay_type": "cell-based", "settings": "4 hours incubation; for dark toxicity: kept in the dark, tested range; for LD50 (phototoxicity): washed, illuminated (λ>650 nm, 12 J/cm^2), survival 24 h after illumination", "experimental": "(§1) M2R mouse melanoma, H5V mouse endothelial and C6 rat glioma cells were cultured as monolayers in Dulbecco's modified Eagle's medium (DMEM)/F12 containing 25 mM HEPES, pH 7.4, 10% fetal bovine serum (FBS), glutamine (2 mM), penicillin (0.06 mg/ml), and streptomycin (0.1 mg/ml) (hereinafter referred to as the “Culture Medium”). Cells were grown at 37° C. in an 8% CO2-humidified atmosphere.\n(§2) To determine the photodynamic efficacy, cells were preincubated with increasing concentrations of the pigments in the dark for the times and conditions as indicated for the individual experiments. Unbound sensitizer was removed by washing the cells once with culture medium, and the plates were illuminated at room temperature from the bottom (λ>650 nm, 12 J/cm^2). The light source was a 100 W Halogen lamp (Osram, Germany) equipped with a 4-cm water filter. The cultures were placed in the culture incubator and cell survival was determined 24 h after illumination, by Neutral Red viability assay. Three kinds of controls were used: (i) light control: cells illuminated in the absence of pigments; (ii) dark control: cells treated with pigments but kept in the dark; and (iii) untreated cells that were kept in the dark.\n(§3) The phototoxicity of compounds 4 and 8 was determined as described in (ii) above in M2R mouse melanoma and H5V mouse endothelial cells. Cells were preincubated with increasing concentrations of the compound for 4 hours, washed and illuminated or kept in the dark."}, "[2]": {"system": "H5V mouse endothelial cells", "assay": "Phototoxicity assay (Neutral Red viability after illumination), H5V cells", "assay_type": "cell-based", "settings": "4 hours incubation; for dark toxicity: kept in the dark, tested range; for LD50 (phototoxicity): washed, illuminated (λ>650 nm, 12 J/cm^2), survival 24 h after illumination", "experimental": "as §1, §2, §3"}, "[3]": {"assay": "Pharmacokinetics in CD1 nude mice blood (Pd by ICP-MS)", "assay_type": "in vivo", "experimental": "FIG. 5 is a graph showing pharmacokinetics of compound 4 in CD1 nude mice blood. Following compound 4 injection (6 mg/kg), blood samples were collected from the same mouse at the indicated times and Pd was determined. Each time point represents average of three mice±STD. Pigment 4 of the invention (6 mg/kg body) was injected to CD1 nude mice via tail vein. Mice were sacrificed at the indicated times, and samples of the indicated organs or tissues were placed and weighed in pre-weighted vials and immediately frozen on dry ice. For examination, each sample was thawed and homogenized (1:10 w/v) in double-distilled water. Aliquots of the homogenate (0.5 ml) were lyophilized in Eppendorff test tubes. […] Palladium concentrations were determined by ICP-MS. Background was determined for each organ/tissue on identical samples taken from untreated mice, and values were subtracted accordingly."}, "[4]": {"assay": "Biodistribution in CD1 nude mice (Pd content of organs)", "assay_type": "in vivo", "experimental": "Mice were sacrificed at different times following compound 4 injection (6 mg/kg), and Pd content was determined for the indicated organs. Each time point represents average of three mice±STD.\nPigment 4 of the invention (6 mg/kg body) was injected to CD1 nude mice via tail vein. Mice were sacrificed at the indicated times, and samples of the indicated organs or tissues were placed and weighed in pre-weighted vials and immediately frozen on dry ice. For examination, each sample was thawed and homogenized (1:10 w/v) in double-distilled water. Aliquots of the homogenate (0.5 ml) were lyophilized in Eppendorff test tubes. Then 0.2 ml of HNO3 (70%, TraceSelect, Fluka) was added to each dry sample, incubated for 1 h at 90° C. and diluted in double-distilled water to 10 ml. Palladium concentrations were determined by ICP-MS. Background was determined for each organ/tissue on identical samples taken from untreated mice, and values were subtracted accordingly."}, "[5]": {"system": "M2R melanoma xenografts", "assay": "PDT of M2R melanoma xenografts in CD1 nude mice", "assay_type": "in vivo", "settings": "for mice cure rate: 6 mg/kg i.v.", "experimental": "(§4) M2R or C6 cells (2×10^6) were implanted subcutaneously on the back of the mice; tumors developed to the treatment size (6-8 mm) within 2-3 weeks.\nStock solutions of the compounds of the invention were prepared prior to use by dissolving the dry pigment directly in PBS to the desired concentration for injection.\nThe M2R tumor-bearing mice were anesthetized and the pigment was injected intravenously (i.v.) via the tail vein. The tumors were immediately illuminated transcutaneously for 5 min by 755 nm diode laser (CeramOptec, Germany) with light dose of either 30 J/cm2 (100 mW/cm2), 39 J/cm2 (130 mW/cm2) or 45 J/cm2 (150 mW/cm2). After the treatment, the mice were returned to the cage. […] In the light control group, the mice were illuminated with 45 J/cm^2.\nIn these experiments (see section (vii) above), a dedicated medical laser matched to the peak absorption of 4 (CeramOptec, Germany, 755 nm) was used. In order to determine the optimal drug/light protocol, mice were treated with drug dose of 6 mg/kg and increasing the light intensity (FIG. 7)."}, "[6]": {"system": "rat C6 glioma xenografts", "assay": "Vascular shutdown and permeability (Evans Blue) after PDT of C6 glioma xenografts", "assay_type": "in vivo, mice", "settings": "9 mg/kg, 100 mW/cm^2 for 5 min; 24 hours after PDT", "experimental": "FIGS. 8a-8h are photographs showing the selective effect of PDT in mice bearing rat C6 glioma xenografts and treated with compound 4. (a-d) PDT treated animal; (e-h) untreated animal. (a) before treatment; (b) 3 hours after PDT and Evans-Blue (EB) injection; (c) skin flap of the treated area, 24 hours after PDT; (d) axial slice of the treated tumor 24 hours after PDT; (e) before EB injection; (f) 3 hours after EB injection; (g) skin flap 24 hours after EB injection; (h) axial slice of the untreated tumor, 24 hours after EB injection. T-tumor; S-skin; M-muscle; E-edema.\nas §4\nMice bearing C6 glioma tumor xenografts were treated with pigment 4 (9 mg/kg) and light (100 mW/cm^2 for 5 min) Immediately after treatment, Evans Blue (EB; 1% in PBS) was injected (0.5 ml, i.p.). Mice were photographed at 3 and 24 hours after treatment. The mice were sacrificed 24 hours after treatment and skin flap was made for each mouse and photographed. Then the tumor was removed with the skin above it, frozen for 1 hour at −20° C., and then axial slice was made and the slice was photographed. Control mice were injected with Evans Blue at the same time as the treated mice, and the protocol was continued as described above for all the mice together."}, "[7]": {"assay": "Aqueous solubility and stability of solution", "assay_type": "physicochemical", "text": "Compound 4 is a pure and stable bacteriochlorophyll derivative isolated as a black purple crystalline powder. […] It is characterized by the following properties: (a) 4 main absorption peaks (750, 530, 385 and 330 nm). The strongest absorbance of light is near the infrared (≈750 nm) where tissue transmittance is the highest; (b) a very low cytotoxicity in the dark. Thus, tissue damage can be controlled by the light dose and length of exposure; (c) it is rapidly cleared from the body after administration. Therefore, potential skin photosensitization damage on exposure to ambient light or to the sun light is minimal; (d) generation of reactive oxygen species (ROS) is high because of efficient intersystem crossing (ISC)."}, "[8]": {"system": "choroid and overlying retina (choriocapillaries)", "method": "The WST11 powder was diluted in endotoxin-free sterile water at a concentration of 10 mg/ml, and shaken until complete dissolution. […] To calculate the volume to be injected, adjustment was made according to the rabbit weight. The appropriate volume solution was injected intravenously as a bolus via the marginal ear vein.\nPigmented rabbits (136 “Fauve de Bourgogne” rabbits, 10-12 weeks old, 2.5-3 kg; Elevage des Pins, Epeigne-sur-Dême, France) were used. Acute and long term PDT effects on the rabbit eye were investigated for the following parameters: 1) 753 nm laser fluence (25 and 50 J/cm^2), Compound 4 (also designated WST11) doses (2.5 and 5 mg/kg) and distance to light illumination (DLI) of 1,5,10 and 15 minutes. 2) 689 nm laser fluence (10, 50, 100 J/cm^2), verteporfin doses (3, 6 and 12 mg/m^2) and a constant DLI of 5 min. These PDT parameters encompassed an array of effects on the choroid and the overlying retina were delivered for 83 seconds to induce occlusive, subthreshold occlusive and non-occlusive vascular events. Treated rabbit eyes were examined and followed by indirect ophthalmoscopy, fluorescein angiography (FA) and histology at various intervals after PDT.\nFor the histology, enucleated eyes were dissected under a binocular microscope. A 4 mm biopsy punch was used to excise the full thickness of treated zones. These tissues were fixed in glutaraldehyde, processed in cacodylate buffer and embedded in plastic. Semi-thin sections were obtained using a microtome and counter-stained with hematoxilin-eosin. These sections were analyzed using phase contrast microscopy. Specific sites of interest were further processed for TEM. Ultrathin sections were obtained using an ultramicrotome and counter-stained with uranyl acetate."}}}
{"molecule": "CC[C@H]1c2cc3[nH]c(c(CC(=O)OC)c4nc(cc5[nH]c(cc(n2)[C@@H]1C)c(C(C)=O)c5C)[C@@H](C)[C@@H]4CCC(=O)O)c(C(=O)NCCS(=O)(=O)[O-])c3C.[K+]", "note": "[Compound 5, 3^1-oxo-15-methoxycarbonylmethyl-Rhodobacteriochlorin 13^1-(2-sulfoethyl)amide dipotassium salt]", "values": [{"measurement": "dark toxicity", "setting": "[1]", "value": "no dark toxicity"}, {"measurement": "LD50 (phototoxicity)", "setting": "[1]", "value": "~5", "unit": "µM"}]}
{"molecule": "Palladium 3^1-oxo-15-methoxycarbonylmethyl-Rhodobacteriochlorin 13^1,17^3-di(3-sulfopropyl)amide dipotassium salt [Compound 8]", "values": [{"measurement": "dark toxicity", "setting": "[2]", "value": "without any dark toxicity"}, {"measurement": "LD50 (phototoxicity)", "setting": "[2]", "value": "~2", "unit": "µM"}, {"measurement": "dark toxicity", "setting": "[1]", "value": "without any dark toxicity"}, {"measurement": "LD50 (phototoxicity)", "setting": "[1]", "value": "~2", "unit": "µM"}]}
{"molecule": "Palladium 3^1-oxo-15-methoxycarbonylmethyl-Rhodobacteriochlorin 13^1-(2-sulfo-ethyl)amide dipotassium salt [Compound 4]", "values": [{"measurement": "dark toxicity", "setting": "[2]", "value": "without any dark toxicity"}, {"measurement": "LD50 (phototoxicity)", "setting": "[2]", "value": "~2", "unit": "µM"}, {"measurement": "dark toxicity", "setting": "[1]", "value": "without any dark toxicity"}, {"measurement": "LD50 (phototoxicity)", "setting": "[1]", "value": "~2", "unit": "µM"}, {"measurement": "CL (clearance)", "setting": "[3]; 6 mg/kg i.v., mice blood", "value": 0.89, "unit": "mL/min"}, {"measurement": "Kel (rate of elimination)", "setting": "[3]; 6 mg/kg i.v., mice blood", "value": 0.42, "unit": "min⁻¹"}, {"measurement": "Vd (volume of distribution)", "setting": "[3]; 6 mg/kg i.v., mice blood", "value": 2.12, "unit": "mL"}, {"measurement": "T0.5", "setting": "[3]; 6 mg/kg i.v., mice blood, monophasic", "value": 1.65, "unit": "min"}, {"measurement": "pigment cleared from blood within the first 10-min after i.v. injection", "setting": "[3]; mouse, in vivo", "value": "about 90%"}, {"measurement": "time after injection to background levels in all tissues", "setting": "[4]; 6 mg/kg i.v.", "value": "≤ 30", "unit": "min"}, {"measurement": "time for pigment levels to drop to almost background levels in most of the examined organs", "setting": "[4]; 6 mg/kg i.v.", "value": "20 to 30", "unit": "min"}, {"measurement": "mice cure rate", "setting": "[5]; 30 J/cm^2, 5 min illumination at 755 nm immediately after injection", "value": 43, "unit": "%"}, {"measurement": "mice cure rate", "setting": "[5]; 45 J/cm^2, 5 min illumination at 755 nm immediately after injection", "value": 60, "unit": "%"}, {"measurement": "mice survival", "setting": "[5]; 9 mg/kg i.v., 30 J/cm^2, 5 min illumination", "value": 70, "unit": "%"}, {"measurement": "dark toxicity in animals", "setting": "[5]; 6 or 9 mg/kg, kept in the dark", "value": "No dark toxicity"}, {"measurement": "effect on tumor blood perfusion (Evans Blue)", "setting": "[6]", "value": "vascular shutdown"}, {"measurement": "stability of formulation", "setting": "[7]; 10 mg/ml in endotoxin-free sterile water, 4° C., protected from light", "value": 24, "unit": "h"}, {"measurement": "solubility", "setting": "[7]; aqueous solution", "value": "soluble in aqueous solution"}, {"measurement": "treated eyes with total choroidal occlusion associated with structural lesions of the overlying RPE and retina", "setting": "[8]; fluence 50 J/cm^2, 5 mg/kg, DLI 1 minute, 753 nm", "value": 100, "unit": "%"}, {"measurement": "choriocapillaries occlusion and retinal lesions", "setting": "[8]; non-occlusive parameters: 25 J/cm^2, 5 mg/kg, DLI 10 minutes", "value": "did not induce choriocapillaries occlusion nor retinal lesions"}, {"measurement": "duration of occlusion of the choriocapillaries after PDT", "setting": "[8]; rabbit eye", "value": "up to one week"}]}
{"molecule": "Pd-Bacteriopheophorbide a [Pd-Bpheid, reference compound]", "values": [{"measurement": "time after injection to reach background levels", "setting": "[4]; mouse body, not shown", "value": 48, "unit": "h"}]}
{"molecule": "Zinc 3^1-oxo-15-methoxycarbonylmethyl-Rhodobacteriochlorin 13^1-(2-sulfoethyl) amide dipotassium salt [Compound 11]", "values": [{"measurement": "dark toxicity", "setting": "[1]", "value": "no dark toxicity"}, {"measurement": "LD50 (phototoxicity)", "setting": "[1]", "value": "~5", "unit": "µM"}]}
{"molecule": "verteporfin [reference compound]", "values": [{"measurement": "eyes with occlusive events (observed by FA)", "setting": "[8]; 12 mg/m^2, 100 J/cm^2, DLI 5 minutes, 689 nm", "value": 89, "unit": "%"}, {"measurement": "choriocapillaries occlusion on FA", "setting": "[8]; non-occlusive parameters: 3 mg/m^2, 10 J/cm^2, DLI 5 minutes", "value": "did not induce any choriocapillaries occlusion"}]}
